From US11453642B2, “Oxygenated amino- or ammonium-containing sulfonic acid, phosphonic acid and carboxylic acid derivatives and their medical use” (GRI BIO, INC., priority 2011, dated 2022)
Marks after values point to notes of the source that are not given here.

Tests used:
[1] = test system: allergic contact dermatitis response in mice; assay: Allergic contact dermatitis (TDI) model in mice, mouse ear swelling test; assay type: in vivo
Description: The anti-inflammatory and anti-allergic effects of compounds 1a and 1c were assessed in a mouse model of allergic contact dermatitis, a response driven primarily by T helper type 2 (Th2) cells. […] In this model, an allergic dermatitis response is obtained by sensitizing mice to TDI and subsequently challenging them with antigen by topical administration onto the ears. A quantitative assessment of anti-inflammatory and anti-allergic effects of topically or orally administered test compounds is possible by measuring the resulting ear swelling. The advantages of the allergic contact dermatitis model (Zöllner et al., Bioessays 26:693-6 (2004)) are reproducibility and reliability (>90% of BALB/c mice respond to sensitization), a short induction protocol, quantitative assessment by measuring ear thickness, atopic dermatitis-like skin lesions can be induced, and clinically relevant pharmaceuticals, such as corticosteroids, calcineurin-inhibitors and PDE4-inhibitors, are effective in this model.
Female BALB/c-mice were obtained from Charles River (Sulzfeld, Germany) at age 8 weeks. All animals were housed in groups of eight per cage at 22° C. with a 12 h light/dark-cycle, Water and a standard diet (Altromin, Lage/Lippe, Germany) were available ad libitum. All animals were acclimatized for one week before experimental procedures were commenced.
Experimental procedures for BALB/c mice housing, TDI sensitization and challenge, and measurement of ear thickness were performed as previously described (Baumer et al., J Pharm Pharmacol, 55:1107-1114 (2003)) with the following modifications. For active sensitization, 100 μL of 5% (w/v) TDI was administered to the shaved and stripped abdominal epidermis on day one, and for the next three consecutive days, 50 μL of 5% (My) TDI was applied. The allergic reaction was boosted 21 days later by application of 50 μL of 0.5% (w/v) TDI. For the examination of test compound effects, the left ears were used for the TDI challenge (20 μL of 0.5% in acetone) and ear thickness measured 3 h before and 24 h after challenge.
Group size was n=7 mice unless otherwise stated. Test compounds were freshly prepared before administration.
Administration time: to determine optimal time for administration treatment groups were treated orally by gavage with 100 mg/kg of compound 1a or 1c (suspended in 0.5% tylose, 10 mL/kg) 1, 4 or 16 h before topical TDI challenge. One group was treated with 100 mg/kg miltefosine orally, 16 h before challenge (based on available data for optimal administration time for miltefosine) and vehicle treated mice received tylose (10 mL/kg) orally, 4 h before challenge.
Dose-response: two groups of mice were treated orally with compound 1a at 25 mg/kg or 100 mg/kg suspended in 0.5% tylose, 4 h before topical TDI challenge. Vehicle treated mice received 0.5% tylose orally 4 h before challenge. As a positive control, dexamethasone was administered in saline solution at 1 mg/kg or 3 mg/kg, 2 h and 30 min before challenge and 1 h after challenge. The dose and dosing scheme for dexamethasone was based on previous experience showing a maximal effect in this model.
Compound 1a was administered to two groups of mice topically in 20 μl of a 2% or 6% solution in propyleneglycol. The suspension was heated to 60° C. and mixed using a thermomixer (Eppendorf) until it became clear. The solution was applied, 2 h before topical TDI challenge by administration of 10 μl onto each of the inner and outer surfaces of the left ears. A vehicle group (17=5) was treated with propyleneglycol. As a positive control, diflorasone, diacetate was administered at 0.01% (low dose) and 0.05% (high dose) in 20 μl acetone, 2 h before challenge. A basal control group was left untreated.
Mean and standard error of the mean (SEM) were calculated from individual ear edema values. […]

[2] = test system: local lymph node reaction; assay: Local lymph node weight and cell count after TDI challenge; assay type: in vivo, mice; settings: topical 1a 2% or 6%, diflorasone 0.1% and 0.5%
Description: Directly after sacrifice, the ear draining lymph node (Ln. auricularis) was prepared and excised. Organ weight was determined by means of an analytical balance (Kern, Balingen, Germany). Single cell suspensions were prepared by means of a glass potter (VWR, Darmstadt, Germany) and cells were counted with a hemocytometer (Neubauer, VWR, Germany).
One of the most undesirable side-effects of corticosteroid administration is immunosuppression, which leads to the inability to effectively address parasitic infection, wound healing and tumor growth. In the current study, the local lymph node reaction after TDI challenge (lymph node weight and cell number) was determined to assess the response of immune organs.

[3] = test system: allergic contact dermatitis response in mice; assay: Allergic contact dermatitis (TDI) model in mice, mouse ear swelling test; assay type: in vivo; settings: topical, 0.5% in 20 μl acetone, 2 h before challenge

Q: `CC(=O)OCC(=O)[C@@]1(OC(C)=O)[C@@H](C)C[C@H]2[C@@H]3C[C@H](F)C4=CC(=O)C=C[C@]4(C)[C@@]3(F)[C@@H](O)C[C@@]21C` [Diflorasone, diflorasone diacetate, reference compound] was tested. Which “effect on ear swelling (in words)” value ([1]; topical positive control, ear thickness reduced below level of untreated mice) did it give?
A: completely eliminated ear swelling

Q: What about the “Inhibition of mouse ear swelling” value ([1]; topical, 0.1% in 20 μl acetone, 2 h before challenge) of the same compound?
A: 101.1*** %

Q: What about the “local lymph node reaction (lymph node weight and cell number)” value [2] of the same compound?
A: completely inhibiting the increase

Q: What about the “Inhibition of mouse ear swelling” value [3] of the same compound?
A: 110.8*** %
